Molecules are shown by their SMILES. “And” between values parts separate entries of the source, which are not always exact repeats. Equal entries are not always repeated. Where two headings read alike, the source gives them in different places. A value given as a limit tells only on which side of the number the result lay.

A word on the IC50: it is the concentration at which inhibition is half-maximal.

One assay addresses CYP2D6 (Homo sapiens, UniProt P10635). Kind of assay: P450-Glo CYP2D6 Luc-IP assay.
The target of the next assay is T1, Recombinant TDO (Homo sapiens, UniProt P48775).
T1 construct: Recombinant TDO (Seegers, N., et al.) and all other assay components were diluted in TDO reaction buffer
Description: Biochemical assay for TDO (NFK GreenScreen). As to conditions: 50 nM TDO, 200 μM L-tryptophan. The protocol:
Biochemical Assay for TDO
The NFK GreenScreen™ assay technology was also used to determine the inhibitory activity of compounds on TDO (Seegers, N., et al., J. Biol. Screen. 19: 1266; 2014). Compounds were serially diluted in DMSO and finally in TDO reaction buffer, consisting of 100 mM NaH2PO4, pH 7.0, supplemented with 0.02% Tween-20 (cat. No. P7949; Sigma Aldrich). Recombinant TDO (Seegers, N., et al.) and all other assay components were diluted in TDO reaction buffer. 10 μl of compound solution and 20 μl of enzyme solution supplemented with 200 μM ascorbic acid were combined in the well of a black 384-well plate (cat. no. 3573; Corning, Corning, N.Y., USA), and incubated for 60 min at room temperature. Subsequently, 10 μl of 0.8 mM of the substrate L-tryptophan was added, i.e., the final concentration of L-tryptophan was 200 μM. The DMSO concentration in the assay was 0.3%. The concentration of TDO was 50 nM. Incubation was continued for 15 min at room temperature. Then, 10 μl of NFK Green™ (NTRC, Oss, The Netherlands) was added, the plate was sealed, and the reaction was developed for 3 hours at 37° C. To determine the production of N-formyl kynurenine (NFK), the seal was removed and fluorescence was read on an EnVision multimode reader (Perkin Elmer, Waltham, Mass., USA). IC50 were calculated using XLfit™ software (ID Business Solutions, Ltd., Surrey, U.K.).

The target in the next assay is CYP3A4 (Homo sapiens, UniProt P08684). Description: P450-Glo CYP3A4 luciferin isopropylacetal (Luc-IP) assay.
Assay [1] has as its target T2, TDO in SW48 colorectal carcinoma cells (Homo sapiens, UniProt P48775).
T2 construct: Endogenous expression of TDO has been determined in a variety of cancer cell lines; host or cells: SW48 colorectal carcinoma cells
Kind of assay: Cell-based assay for TDO in SW48 colorectal carcinoma cells (NFK GreenScreen). The conditions noted are these: 18 hours with L-tryptophan. The protocol: The biological activity of TDO inhibitors can be measured by applying above detection methods to cells that are treated with test compound. Endogenous expression of TDO has been determined in a variety of cancer cell lines (Pilotte et al.; Seegers, et al.), or TDO can be expressed in cells that lack endogenous TDO by transfection of an expression vector containing TDO cDNA. […] A preferred assay is the cell-based NFK GreenScreen™ assay (Seegers et al, supra), which measures the cellular inhibitory activity of compounds on TDO. […] No. V9920). Cell-Based Assay for TDO The NFK GreenScreen™ assay technology was also used to determine the inhibitory activity of compounds on TDO in SW48 colorectal carcinoma cells (Seegers, N., et al., J. Biol. Screen. 19: 1266; 2014). […] Compounds were dissolved in DMSO and diluted in RPMI 1640. Final DMSO concentration in the assay was 0.4% (v/v). Eight thousand cells per well in 40 μl were seeded in a black 384-well tissue plate (cat. No. 781086; […] To determine NFK levels, 12 μl NFK Green™ (NTRC, Oss, The Netherlands) was added to each well, and the plate was sealed and incubated for 4 hours at 37° C. Fluorescence was measured on an EnVision multimode reader (Perkin Elmer, Waltham, Mass., USA).

Sequence of CYP3A4 (P08684 whole entry): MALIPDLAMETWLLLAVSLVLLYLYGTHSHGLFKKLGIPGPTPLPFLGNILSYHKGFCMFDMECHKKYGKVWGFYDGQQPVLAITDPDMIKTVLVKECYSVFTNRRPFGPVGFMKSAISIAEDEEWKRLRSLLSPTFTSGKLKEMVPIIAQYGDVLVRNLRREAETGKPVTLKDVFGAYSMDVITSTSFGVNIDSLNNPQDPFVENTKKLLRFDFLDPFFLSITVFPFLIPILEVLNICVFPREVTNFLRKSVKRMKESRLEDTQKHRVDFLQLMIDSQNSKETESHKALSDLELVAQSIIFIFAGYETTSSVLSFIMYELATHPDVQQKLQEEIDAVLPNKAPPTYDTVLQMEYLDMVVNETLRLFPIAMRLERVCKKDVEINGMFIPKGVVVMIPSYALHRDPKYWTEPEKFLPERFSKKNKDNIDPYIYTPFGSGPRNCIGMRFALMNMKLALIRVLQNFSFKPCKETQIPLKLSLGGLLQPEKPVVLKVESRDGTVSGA
T2 sequence (P48775 whole entry): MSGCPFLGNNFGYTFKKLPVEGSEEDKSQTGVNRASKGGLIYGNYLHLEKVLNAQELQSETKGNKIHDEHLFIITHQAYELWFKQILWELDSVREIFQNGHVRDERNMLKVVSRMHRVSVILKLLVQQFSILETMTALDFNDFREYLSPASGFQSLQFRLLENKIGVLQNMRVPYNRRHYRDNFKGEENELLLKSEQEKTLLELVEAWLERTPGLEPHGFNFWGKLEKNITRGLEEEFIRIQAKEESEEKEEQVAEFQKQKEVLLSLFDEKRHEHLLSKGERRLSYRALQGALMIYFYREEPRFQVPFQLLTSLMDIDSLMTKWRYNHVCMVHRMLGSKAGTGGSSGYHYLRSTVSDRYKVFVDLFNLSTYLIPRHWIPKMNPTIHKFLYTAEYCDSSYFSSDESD
T1 sequence (P48775 whole entry): as above
Sequence of CYP2D6 (P10635 whole entry): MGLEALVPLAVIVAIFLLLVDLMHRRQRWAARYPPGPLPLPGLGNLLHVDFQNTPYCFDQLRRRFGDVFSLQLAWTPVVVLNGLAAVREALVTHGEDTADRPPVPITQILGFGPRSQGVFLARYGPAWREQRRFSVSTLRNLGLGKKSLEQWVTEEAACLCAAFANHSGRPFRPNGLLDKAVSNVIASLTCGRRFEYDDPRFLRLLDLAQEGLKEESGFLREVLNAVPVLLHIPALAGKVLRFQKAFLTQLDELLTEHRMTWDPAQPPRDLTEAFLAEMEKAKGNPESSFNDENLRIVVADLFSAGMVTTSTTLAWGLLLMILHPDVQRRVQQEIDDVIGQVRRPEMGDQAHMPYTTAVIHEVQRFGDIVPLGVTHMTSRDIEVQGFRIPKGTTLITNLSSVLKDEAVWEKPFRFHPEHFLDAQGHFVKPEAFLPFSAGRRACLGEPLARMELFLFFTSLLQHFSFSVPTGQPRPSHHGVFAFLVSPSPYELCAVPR
Description for CYP3A4: To determine the inhibitory potency of compounds on CYP3A4 enzyme, the P450-Glo CYP3A4 luciferin isopropylacetal (Luc-IP) assay was used (Promega, Madison, Wis., USA, Cat. No. V9920). The assay makes use of a luminogenic isopropylacetal (IPA) substrate that is a derivative from beetle luciferin, a substrate of luciferase enzymes. The IPA substrate is converted by CYP3A4 to luciferin, which in turn reacts with luciferase to produce an amount of light that is directly proportional to the activity of CYP3A4. Compounds were serially diluted in DMSO and finally in 400 mM K2HPO4, pH 7.4. 5 μl of compound solution and 5 μl of CYP3A4/substrate solution were combined in the well of a white 384-well Optiplate (Perkin Elmer). The DMSO concentration in the assay was 0.1%. After incubation for 10 minutes at room temperature in the dark, 10 μl of NADPH regeneration system was added and incubation was continued for 10 min. Then, 20 μl of Luciferin Detection Reagent was added to stop the reaction, and incubation was continued for another 20 min. Luminescence was measured on an Envision multimode reader and IC50 values were calculated using XLfit™. […] Instead of in a 96-well plate, the assay was performed in 384-well white Perkin Elmer Optiplate (cat. no. 6007290).

In the case of `CC(CN(C)C)NC(=O)c1ccc(-c2c[nH]c3cc(F)ccc23)cc1` (stereo not shown) [Example 1, N-[2-(dimethylamino)-1-methyl-ethyl]-4-(6-fluoro-1H-indol-3-yl)benzamide], the IC50 at CYP2D6 is more than 10000 nM; on Recombinant TDO it was less than 1000 nM; against CYP3A4, more than 10000 nM; in assay [1] (read-out: IC50 on TDO in cells), not above 200 nM.
As for `CC(C)NC(=O)c1ccc(-c2c[nH]c3cc(F)ccc23)cc1` [Example 2, 4-(6-Fluoro-1H-indol-3-yl)-N-isopropyl-benzamide], the IC50 against CYP2D6 is more than 10000 nM; on Recombinant TDO it was less than 1000 nM; against CYP3A4, more than 10000 nM; in assay [1] (read-out: IC50 on TDO in cells) it was not above 200 nM.
For the compound `CC(C)[C@@H](CO)NC(=O)c1ccc(-c2c[nH]c3cc(F)ccc23)cc1` [Example 3, 4-(6-Fluoro-1H-indol-3-yl)-N-[(1S)-1-(hydroxymethyl)-2-methyl-propyl]benzamide], the 50% inhibitory concentration (IC50) against CYP2D6 is more than 10000 nM; at Recombinant TDO, less than 1000 nM; on CYP3A4, more than 10000 nM; in assay [1] (read-out: IC50 on TDO in cells), ≤ 500 nM and 200 to 500 nM.
In the case of `CC(=O)Nc1ccc(-c2c[nH]c3cc(F)ccc23)cc1` [Example 4, N-[4-(6-Fluoro-1H-indol-3-yl)phenyl]acetamide], the IC50 against CYP2D6 is more than 10000 nM; on Recombinant TDO it was less than 1000 nM; against CYP3A4 it was more than 10000 nM; in assay [1] (read-out: IC50 on TDO in cells) it was ≤ 500 nM and 200 to 500 nM.
Regarding `O=C(NCCO)c1ccc(-c2c[nH]c3cc(F)ccc23)cc1` [Example 10, 4-(6-Fluoro-1H-indol-3-yl)-N-(2-hydroxyethyl)benzamide], the IC50 at CYP2D6 is 5000 to 10000 nM; at Recombinant TDO it was less than 1000 nM; against CYP3A4, more than 10000 nM; in assay [1] (read-out: IC50 on TDO in cells), ≤ 500 nM and 200 to 500 nM.
Take `N#CC1(NC(=O)c2ccc(-c3c[nH]c4cc(F)ccc34)cc2)CC1` [Example 12, N-(1-cyanocyclopropyl)-4-(6-fluoro-1H-indol-3-yl)benzamide]: the half-inhibitory concentration (IC50) against CYP2D6 was more than 10000 nM; on Recombinant TDO, less than 1000 nM; on CYP3A4, more than 10000 nM; in assay [1] (read-out: IC50 on TDO in cells) it was ≤ 500 nM and 200 to 500 nM.
Take `CC(C)(O)CNC(=O)c1ccc(-c2c[nH]c3cc(F)ccc23)cc1` [Example 13, 4-(6-Fluoro-1H-indol-3-yl)-N-(2-hydroxy-2-methyl-propyl)benzamide]: the IC50 was more than 10000 nM against CYP2D6; less than 1000 nM on Recombinant TDO; more than 10000 nM on CYP3A4; ≤ 500 nM and 200 to 500 nM in assay [1] (read-out: IC50 on TDO in cells).
On to `C[C@H](CO)NC(=O)c1ccc(-c2c[nH]c3cc(F)ccc23)cc1` [Example 14, 4-(6-fluoro-1H-indol-3-yl)-N-[(1R)-2-hydroxy-1-methyl-ethyl]benzamide], for which the IC50 at CYP2D6 was 5000 to 10000 nM; at Recombinant TDO it was less than 1000 nM; against CYP3A4, more than 10000 nM; in assay [1] (IC50 on TDO in cells) it was ≤ 500 nM and 200 to 500 nM.
As to `C[C@@H](CO)NC(=O)c1ccc(-c2c[nH]c3cc(F)ccc23)cc1` [Example 15, 4-(6-fluoro-1H-indol-3-yl)-N-[(1S)-2-hydroxy-1-methyl-ethyl]benzamide], the IC50 was more than 10000 nM on CYP2D6, less than 1000 nM on Recombinant TDO, more than 10000 nM at CYP3A4 and not above 200 nM in assay [1] (IC50 on TDO in cells).
As for `O=C(N[C@@H](CO)c1ccccc1)c1ccc(-c2c[nH]c3cc(F)ccc23)cc1` [Example 16, 4-(6-fluoro-1H-indol-3-yl)-N-[(1R)-2-hydroxy-1-phenyl-ethyl]benzamide], the IC50 against CYP2D6 was 5000 to 10000 nM; on Recombinant TDO, 1000 to 5000 nM; against CYP3A4 it was 5000 to 10000 nM; in assay [1] (read-out: IC50 on TDO in cells), ≤ 500 nM and 200 to 500 nM.
Take `COC[C@@H](C)NC(=O)c1ccc(-c2c[nH]c3cc(F)ccc23)cc1` [Example 17, 4-(6-Fluoro-1H-indol-3-yl)-N-[(1R)-2-methoxy-1-methyl-ethyl]benzamide]: the IC50 against CYP2D6 was more than 10000 nM; at Recombinant TDO it was less than 1000 nM; at CYP3A4, more than 10000 nM; in assay [1] (read-out: IC50 on TDO in cells) it was ≤ 500 nM and 200 to 500 nM.
With `O=C(N[C@H]1CCCNC1)c1ccc(-c2c[nH]c3cc(F)ccc23)cc1` [Example 19, 4-(6-Fluoro-1H-indol-3-yl)-N-[(3S)-3-piperidyl]benzamide], the IC50 against CYP2D6 is more than 10000 nM; at Recombinant TDO it was less than 1000 nM; at CYP3A4, more than 10000 nM; in assay [1] (read-out: IC50 on TDO in cells), not above 200 nM.
On to `O=C(N[C@@H]1CN2CCC1CC2)c1ccc(-c2c[nH]c3cc(F)ccc23)cc1` [Example 20, 4-(6-Fluoro-1H-indol-3-yl)-N-[(3S)-quinuclidin-3-yl]benzamide], for which the IC50 is more than 10000 nM at CYP2D6, less than 1000 nM on Recombinant TDO, more than 10000 nM on CYP3A4 and not above 200 nM in assay [1] (read-out: IC50 on TDO in cells).
For the compound `CC(O)C(C)NC(=O)c1ccc(-c2c[nH]c3cc(F)ccc23)cc1` (stereo not shown) [Example 21, 4-(6-Fluoro-1H-indol-3-yl)-N-(2-hydroxy-1-methyl-propyl)benzamide], the IC50 was more than 10000 nM against CYP2D6, less than 1000 nM on Recombinant TDO, more than 10000 nM on CYP3A4 and not above 200 nM in assay [1] (read-out: IC50 on TDO in cells).
On to `CCN(CC)CC(C)NC(=O)c1ccc(-c2c[nH]c3cc(F)ccc23)cc1` (stereo not shown) [Example 23, N-[2-(diethylamino)-1-methyl-ethyl]-4-(6-fluoro-1H-indol-3-yl)benzamide], for which the IC50 on CYP2D6 was more than 10000 nM; on Recombinant TDO, less than 1000 nM; at CYP3A4, 5000 to 10000 nM; in assay [1] (read-out: IC50 on TDO in cells), not above 200 nM.
The matching figures for `CN1CCC(NC(=O)c2ccc(-c3c[nH]c4cc(F)ccc34)cc2)CC1` [Example 24, 4-(6-Fluoro-1H-indol-3-yl)-N-(1-methyl-4-piperidyl)benzamide]: more than 10000 nM, less than 1000 nM, more than 10000 nM and not above 200 nM.
The matching figures for `CN1CCCC(NC(=O)c2ccc(-c3c[nH]c4cc(F)ccc34)cc2)C1` (stereo not shown) [Example 25, 4-(6-Fluoro-1H-indol-3-yl)-N-(1-methyl-3-piperidyl)benzamide]: more than 10000 nM, less than 1000 nM, more than 10000 nM and not above 200 nM.
Regarding `O=C(NC1COC1)c1ccc(-c2c[nH]c3cc(F)ccc23)cc1` [Example 26, 4-(6-Fluoro-1H-indol-3-yl)-N-(oxetan-3-yl)benzamide], the IC50 against CYP2D6 was more than 10000 nM; on Recombinant TDO, less than 1000 nM; at CYP3A4, more than 10000 nM; in assay [1] (read-out: IC50 on TDO in cells), ≤ 500 nM and 200 to 500 nM.
For `COCC(=O)Nc1ccc(-c2c[nH]c3cc(F)ccc23)cc1` [Example 27, N-[4-(6-fluoro-1H-indol-3-yl)phenyl]-2-methoxy-acetamide], the IC50 against CYP2D6 is more than 10000 nM; at Recombinant TDO, less than 1000 nM; against CYP3A4, more than 10000 nM; in assay [1] (read-out: IC50 on TDO in cells) it was ≤ 500 nM and 200 to 500 nM.
As for `CSCC(=O)Nc1ccc(-c2c[nH]c3cc(F)ccc23)cc1` [Example 31, N-[4-(6-fluoro-1H-indol-3-yl)phenyl]-2-methylsulfanyl-acetamide], the IC50 was more than 10000 nM at CYP2D6; less than 1000 nM on Recombinant TDO; more than 10000 nM against CYP3A4; ≤ 500 nM and 200 to 500 nM in assay [1] (read-out: IC50 on TDO in cells).
For `O=C(N[C@@H]1CCCNC1)c1ccc(-c2c[nH]c3cc(F)ccc23)cc1` [Example 36, 4-(6-Fluoro-1H-indol-3-yl)-N-[(3R)-3-piperidyl]benzamide], the IC50 at CYP2D6 was more than 10000 nM; at Recombinant TDO it was less than 1000 nM; against CYP3A4, more than 10000 nM; in assay [1] (read-out: IC50 on TDO in cells), ≤ 500 nM and 200 to 500 nM.
For `O=C(NC[C@@H]1CCCNC1)c1ccc(-c2c[nH]c3cc(F)ccc23)cc1` [Example 42, 4-(6-Fluoro-1H-indol-3-yl)-N-[[(3R)-3-piperidyl]methyl]benzamide], the IC50 was more than 10000 nM against CYP2D6; less than 1000 nM on Recombinant TDO; 5000 to 10000 nM against CYP3A4; ≤ 500 nM and 200 to 500 nM in assay [1] (read-out: IC50 on TDO in cells).

For the origin of these results see patent US10689343B2, “Inhibitors of tryptophan 2,3-dioxygenase” (NETHERLANDS TRANSLATIONAL RESEARCH CENTER B.V., priority 2016, dated 2020).
